The test system of this assay is Listeria innocua. The experiment in a line: Bacterial viability of Listeria innocua, 2 h incubation in tryptone soy broth, CFU counting. The format is cell-based. The following applies: L. innocua, about 10^6 CFU/ml, 37° C., concentration of vanillin.

Each structure is given as a SMILES string.

Description: To that end, in vitro assays were carried out to determine the bacterial viability of Listeria innocua compared to mesoporous particles functionalized with vanillin as well as free vanillin. […] To that end, different suspensions of particles or free vanillin in culture broth (tryptone soy broth) were prepared, and the microbial inoculum was added thereto to obtain an initial population of about 10^6 CFU/ml. Said suspensions were incubated under orbital stirring (150 rpm) at 37° C. for 2 h. After said period, the serial dilutions were seeded in selective medium and incubated for 48 h, with subsequent counting of the colony forming units (CFUs) and calculation of the percentage of inhibition.

For the molecule `COc1cc(C=O)ccc1O` [free vanillin, vanillin], the “concentration producing complete inhibition of the microorganism” value came out at 4 mg/mL.
